biological target: T1, Human ACC2 (ACC2 (Nd), N terminal deleted) (Homo sapiens, UniProt O00763); experiment: Measurement of ACC2 inhibitory activity (malachite green, recombinant ACC2 (Nd)); assay type: biochemical; settings: 10 μM test compound; 20 min preincubation at 30° C., 20 min reaction; 10 µM
T1 construct: made in house; host or cells: SF-9 insect cells (baculovirus)
Method: The ACC2 inhibitory action of the compound of the present invention was evaluated by the following method.
(1) Cloning of Human ACC2 Gene and Preparation of Recombinant Baculovirus
Human ACC2 gene was cloned by PCR using a human skeletal muscle cDNA library (Clontech) as a template and Primer 1 and Primer 2 shown below. Primer 1 and Primer 2 were prepared by adding SalI, XbaI restriction enzyme recognition sequences based on the information of the base sequence of human ACC2 gene (Genbank Accession U89344).
(§1) PCR was performed using Pyrobest DNA polymerase (TAKARA BIO INC.). The obtained PCR product was cloned to pT7 Blue vector (Novagen) and after confirmation of the base sequence, digested with restriction enzymes SalI and XbaI. The obtained DNA fragment was inserted into pFAST-BacHTa (Invitrogen) digested with restriction enzymes Sail and XbaI to give expression plasmid ACC2/pFAST-BacHTa.
A plasmid for expression of ACC2 without a mitochondrial targeting sequence was prepared by PCR using the expression plasmid as a template, and Primer 3 (salI restriction enzyme recognition sequence was added) and Primer 4, which are prepared by reference to the information of human ACC2 gene base sequence (Genbank Accession U89344).
as §1, with “Pyrobest-DNA” for “Pyrobest DNA”, “Aflil.” for “XbaI.”, “ACC2/pFAST-BacHTa” for “pFAST-BacHTa (Invitrogen)”, “SalI” for “Sail”, “AfilI” for “XbaI”, “ACC2mito7/pFAST-BacHTa.” for “ACC2/pFAST-BacHTa.”
Using the expression plasmid ACC2mito7/pFAST-BacHTa and BAC-TO-BAC Baculovirus Expression System (Invitrogen), virus stock BAC-ACC2 of recombinant Baculovirus (N terminal deleted (hereinafter Nd)) was prepared.
(2) Preparation of ACC2 (Nd) Protein
SF-9 cells (Invitrogen) were inoculated to a medium (2 L) for insect cells (Sf-900IISFM medium (Invitrogen) containing 10% fetal bovine serum (Trace), 50 mg/L Gentamicin (Invitrogen), 0.1% Pluronic F-68 (Invitrogen)) at 0.5×10^6 cells/mL, and cultured with shaking in Wave Bioreactor (Wave) at 27° C., 20 rpm, rocking angle 6°, oxygen concentration 30%.
On day 4 of the culture, 3 L of the medium for insect cells was added, the rocking angle was set to 8°, and the cells were further cultured. On day 5 of the culture, 100 mL of recombinant Baculovirus BAC-ACC2 (Nd) was added, 5 L of the medium for insect cells was further added, the rocking angle was set to 11°, and the cells were cultured for 3 days. The culture medium was centrifuged at 1000×g for 10 min to give virus-infected cells. The cells were washed with phosphate buffered saline (Invitrogen) and centrifuged under the same conditions. The obtained cells were cryopreserved at −80° C.
The cryopreserved cells were thawed in ice and suspended in 900 mL of 25 mM HEPES buffer (pH 7.5) containing 10% Glycerol, 0.13 M NaCl, 1 mM EDTA, 25 mM Sodium β-Glycerophosphate and 1 mM Sodium Orthovanadate, and supplemented with Complete Protease Inhibitor (Nippon Boehringer Ingelheim Co., Ltd.). The obtained suspension was homogenized three times in a polytron homogenizer (Kinematica) at 20,000 rpm for 30 sec. The obtained cell disruption solution was clarified by centrifugation at 31000×g for 60 min, and filtered through a 0.45 μm filter. The filtrate was passed through a column packed with 60 mL of Ni-NTA Super Flow Gel (QUIAGEN) at a flow rate of about 5 mL/min. The column was washed with buffer A (50 mM HEPES (pH 7.5) containing 0.3 M NaCl), further washed with buffer A containing 20 mM Imidazole, and eluted with buffer A containing 100 mM Imidazole. The eluate was concentrated with Vivaspin 20 (Vivascience) with a molecular weight cut off of 30K. The obtained concentrate was dialyzed against 50 mM HEPES (pH 7.5) containing 10 mM MgCl2, 2 mM Dithiothreitol, 10 mM Tripotassium Citrate and 0.3 M NaCl. […]

T1 sequence (O00763 117-2458 limits assumed, stated change not applied): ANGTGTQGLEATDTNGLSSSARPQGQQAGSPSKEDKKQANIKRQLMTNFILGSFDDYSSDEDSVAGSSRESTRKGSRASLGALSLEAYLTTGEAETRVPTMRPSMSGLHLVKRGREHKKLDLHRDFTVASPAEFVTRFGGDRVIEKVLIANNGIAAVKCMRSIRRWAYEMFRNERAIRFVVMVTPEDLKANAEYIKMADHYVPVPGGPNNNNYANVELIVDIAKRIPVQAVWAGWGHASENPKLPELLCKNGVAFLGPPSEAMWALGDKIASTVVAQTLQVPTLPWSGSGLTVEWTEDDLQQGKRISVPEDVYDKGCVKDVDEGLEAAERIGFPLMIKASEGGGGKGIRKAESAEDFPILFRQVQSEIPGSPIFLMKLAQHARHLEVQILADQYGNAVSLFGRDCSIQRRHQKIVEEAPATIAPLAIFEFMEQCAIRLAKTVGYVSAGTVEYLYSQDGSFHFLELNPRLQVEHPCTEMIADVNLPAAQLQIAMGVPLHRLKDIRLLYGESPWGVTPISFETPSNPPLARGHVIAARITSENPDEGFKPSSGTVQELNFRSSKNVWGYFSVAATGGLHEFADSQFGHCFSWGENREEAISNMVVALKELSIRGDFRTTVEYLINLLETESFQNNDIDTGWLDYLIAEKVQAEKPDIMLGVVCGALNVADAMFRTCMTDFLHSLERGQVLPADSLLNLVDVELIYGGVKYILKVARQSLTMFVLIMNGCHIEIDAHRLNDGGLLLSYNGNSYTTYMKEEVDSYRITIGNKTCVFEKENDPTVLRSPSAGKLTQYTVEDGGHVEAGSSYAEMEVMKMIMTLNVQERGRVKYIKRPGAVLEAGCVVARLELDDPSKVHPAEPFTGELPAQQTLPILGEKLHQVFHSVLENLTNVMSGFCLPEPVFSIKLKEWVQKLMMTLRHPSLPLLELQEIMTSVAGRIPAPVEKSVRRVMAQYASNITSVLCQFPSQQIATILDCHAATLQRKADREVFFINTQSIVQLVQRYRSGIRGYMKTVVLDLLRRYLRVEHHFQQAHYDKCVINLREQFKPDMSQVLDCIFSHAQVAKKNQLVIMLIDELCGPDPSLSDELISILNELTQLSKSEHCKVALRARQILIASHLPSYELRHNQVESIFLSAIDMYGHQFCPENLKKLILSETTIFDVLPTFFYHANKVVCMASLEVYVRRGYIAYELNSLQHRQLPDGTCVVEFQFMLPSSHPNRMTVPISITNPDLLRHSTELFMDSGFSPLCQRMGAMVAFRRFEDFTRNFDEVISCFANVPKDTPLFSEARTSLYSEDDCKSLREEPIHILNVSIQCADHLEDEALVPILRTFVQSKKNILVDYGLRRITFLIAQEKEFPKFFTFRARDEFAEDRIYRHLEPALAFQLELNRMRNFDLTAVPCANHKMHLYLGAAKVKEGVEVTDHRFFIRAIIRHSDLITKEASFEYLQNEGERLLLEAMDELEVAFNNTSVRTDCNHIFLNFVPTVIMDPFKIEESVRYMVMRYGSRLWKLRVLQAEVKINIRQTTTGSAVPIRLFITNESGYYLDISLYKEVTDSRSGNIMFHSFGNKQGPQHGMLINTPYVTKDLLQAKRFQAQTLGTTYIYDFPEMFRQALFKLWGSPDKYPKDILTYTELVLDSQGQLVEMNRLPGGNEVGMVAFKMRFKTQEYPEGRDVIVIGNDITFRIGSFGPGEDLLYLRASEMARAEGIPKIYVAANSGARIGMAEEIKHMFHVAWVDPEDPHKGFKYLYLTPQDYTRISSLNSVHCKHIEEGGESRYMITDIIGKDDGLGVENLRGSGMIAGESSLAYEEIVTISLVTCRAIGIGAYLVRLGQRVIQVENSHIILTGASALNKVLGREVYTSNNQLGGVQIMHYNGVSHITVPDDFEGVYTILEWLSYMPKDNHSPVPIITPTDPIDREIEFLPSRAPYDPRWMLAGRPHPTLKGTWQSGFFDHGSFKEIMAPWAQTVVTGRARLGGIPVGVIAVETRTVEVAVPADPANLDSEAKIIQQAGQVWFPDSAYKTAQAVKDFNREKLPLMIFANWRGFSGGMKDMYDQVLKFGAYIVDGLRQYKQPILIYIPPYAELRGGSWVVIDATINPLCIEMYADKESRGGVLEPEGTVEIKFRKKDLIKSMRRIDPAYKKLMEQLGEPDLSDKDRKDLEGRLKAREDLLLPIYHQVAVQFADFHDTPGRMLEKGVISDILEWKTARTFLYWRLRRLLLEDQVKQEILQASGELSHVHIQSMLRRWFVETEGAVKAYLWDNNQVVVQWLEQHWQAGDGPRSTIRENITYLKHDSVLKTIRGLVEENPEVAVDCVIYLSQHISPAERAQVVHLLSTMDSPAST

Question: For `CC(=O)N[C@@H](C)COc1cnc(-c2nc3ccc(OCC4CC4(F)F)cc3o2)c(F)c1` (stereo partly drawn) [Example 110, Diastereomer of N-{(1S)-2-[(6-{6-[(2,2-difluorocyclopropyl)methoxy]-1,3-benzoxazol-2-yl}-5-fluoropyridin-3-yl)oxy]-1-methylethyl}acetamide (retention time: long)], which “ACC2 inhibitory rate at 10 μM (%)” value is on record?
Answer: 91%

Question: With `C[C@@H](COc1cnc(-c2nc3ccc(OCC4CC4(F)F)cc3o2)c(F)c1)NC(N)=O` (stereo partly drawn) [Example 112, Diastereomer of 1-{(1S)-2-[(6-{6-[(2,2-difluorocyclopropyl)methoxy]-1,3-benzoxazol-2-yl}-5-fluoropyridin-3-yl)oxy]-1-methylethyl}urea (retention time: long)] as the compound, how does the “ACC2 inhibitory rate at 10 μM (%)” value read?
Answer: 100%

Question: How did the “ACC2 inhibitory rate at 10 μM (%)” value turn out when `C[C@@H](COc1cnc(-c2nc3ccc(OCC4CC4(F)F)cc3o2)c(F)c1)NC(N)=O` (stereo partly drawn) [Example 111, Diastereomer of 1-{(1S)-2-[(6-{6-[(2,2-difluorocyclopropyl)methoxy]-1,3-benzoxazol-2-yl}-5-fluoropyridin-3-yl)oxy]-1-methylethyl}urea (retention time: short)] was run?
Answer: 100%

same assay, conditions: 10 μM test compound; 20 min preincubation at 30° C., 20 min reaction; read-out: ACC2 inhibitory rate at 10 μM (%)

Question: `CC(=O)N[C@@H](C)COc1cnc(-c2nc3ccc(OCC4CC4(F)F)cc3o2)c(F)c1` (stereo partly drawn) [Example 109, Diastereomer of N-{(1S)-2-[(6-{6-[(2,2-difluorocyclopropyl)methoxy]-1,3-benzoxazol-2-yl}-5-fluoropyridin-3-yl)oxy]-1-methylethyl}acetamide (retention time: short)] was tested. Which inhibition at 10 µM did it give?
Answer: 95%

Question: With `CNC(=O)N[C@@H](C)COc1ccc(-c2nc3ccc(OCC4CC4)cc3o2)nc1` [Example 16, 1-[(1S)-2-({6-[6-(cyclopropylmethoxy)-1,3-benzoxazol-2-yl]pyridin-3-yl}oxy)-1-methylethyl]-3-methylurea] as the compound, how does the inhibition at 10 µM read?
Answer: 93%

Question: With `CC(=O)N[C@@H](C)COc1cc(F)c(-n2cc3ccc(OCC4CC4)cc3n2)cc1F` [Example 70, N-[(1S)-2-{4-[6-(cyclopropylmethoxy)-2H-indazol-2-yl]-2,5-difluorophenoxy}-1-methylethyl]acetamide] as the compound, how does the inhibition at 10 µM read?
Answer: 93%

Question: Which inhibition at 10 µM does the source give for `CC(=O)N[C@@H](C)COc1ccc(-c2nn3cc(OCC4CC4)ccc3c2F)c(F)c1` [Example 102, N-[(1S)-2-{4-[6-(cyclopropylmethoxy)-3-fluoropyrazolo[1,5-a]pyridin-2-yl]-3-fluorophenoxy}-1-methylethyl]acetamide] here?
Answer: 99%

Question: With `CCOc1ccc2c(F)c(-c3ccc(OC[C@H](C)NC(C)=O)cc3F)nn2c1` [Example 100, N-{(1S)-2-[4-(6-ethoxy-3-fluoropyrazolo[1,5-a]pyridin-2-yl)-3-fluorophenoxy]-1-methylethyl}acetamide] as the compound, how does the inhibition at 10 µM read?
Answer: 90%

Question: With `CCOc1ccc2cc(-c3ccc(OC[C@H](C)NC(C)=O)cc3)nn2c1` [Example 85, N-{(1S)-2-[4-(6-ethoxypyrazolo[1,5-a]pyridin-2-yl)phenoxy]-1-methylethyl}acetamide] as the compound, how does the inhibition at 10 µM read?
Answer: 93%

Question: How did the inhibition at 10 µM turn out when `CC(=O)N[C@@H](C)COc1cc(-c2nc3cc(OC(C)C)ccc3o2)on1` [Example 33, N-[(1S)-1-methyl-2-({5-[5-(1-methylethoxy)-1,3-benzoxazol-2-yl]isoxazol-3-yl}oxy)ethyl]acetamide] was run?
Answer: 85%

Question: With `CC(=O)N[C@@H](C)COc1ccc(-n2cc3cc(OCC4CC4)ccc3n2)cc1` [Example 12, N-[(1S)-2-{4-[5-(cyclopropylmethoxy)-2H-indazol-2-yl]phenoxy}-1-methylethyl]acetamide] as the compound, how does the inhibition at 10 µM read?
Answer: 103%

Question: For `CC(=O)N[C@@H](C)COc1ccc(-c2nc3cc(OCC4CC4)ccn3n2)cc1` [Example 95, N-[(1S)-2-{4-[7-(cyclopropylmethoxy) [1,2,4]triazolo[1,5-a]pyridin-2-yl]phenoxy}-1-methylethyl]acetamide], which inhibition at 10 µM is on record?
Answer: 94%

Question: How did the inhibition at 10 µM turn out when `CC(=O)N[C@@H](C)COc1n[nH]c(-c2nc3ccc(OCC4CC4)cc3o2)c1F` [Example 9, N-[(1S)-2-({5-[6-(cyclopropylmethoxy)-1,3-benzoxazol-2-yl]-4-fluoro-1H-pyrazol-3-yl}oxy)-1-methylethyl]acetamide] was run?
Answer: 98%

Question: For `CC(=O)N[C@@H](C)COc1ccc(-n2cc3ccc(OCC4CC4)cc3n2)cc1` [Example 13, N-[(1S)-2-{4-[6-(cyclopropylmethoxy)-2H-indazol-2-yl]phenoxy}-1-methylethyl]acetamide], which inhibition at 10 µM is on record?
Answer: 94%

Question: With `CC(=O)N[C@@H](C)COc1ccc(-c2nc3ccc(OCC(C)(F)F)cc3o2)nc1` [Example 30] as the compound, how does the inhibition at 10 µM read?
Answer: 100%

Question: With `CCC1(c2ccc(OC[C@H](C)NC(C)=O)cn2)Cc2ccc(OCC3CC3)cc2O1` (stereo partly drawn) [Example 119, Diastereomer of N-[(1S)-2-({6-[6-(cyclopropylmethoxy)-2-ethyl-2,3-dihydro-1-benzofuran-2-yl]pyridin-3-yl}oxy)-1-methylethyl]acetamide] as the compound, how does the inhibition at 10 µM read?
Answer: 97%

Question: With `CC(=O)N[C@@H](C)COc1ccc(C2Cc3ccc(OCC4CC4)cc3O2)nc1` (stereo partly drawn) [Example 24, N-[(1S)-2-({6-[6-(cyclopropylmethoxy)-2,3-dihydro-1-benzofuran-2-yl]pyridin-3-yl}oxy)-1-methylethyl]acetamide] as the compound, how does the inhibition at 10 µM read?
Answer: 90%

Question: For `CC(=O)N[C@@H](C)COc1ccc(-c2cc3ccc(OCC4CC4)cn3n2)c(F)c1` [Example 104, N-[(1S)-2-{4-[6-(cyclopropylmethoxy)pyrazolo[1,5-a]pyridin-2-yl]-3-fluorophenoxy}-1-methylethyl]acetamide], which inhibition at 10 µM is on record?
Answer: 102%

Question: `CC(=O)N[C@@H](C)COc1ccc(-c2nc3ccc(OCC4CC4)cn3n2)cc1` [Example 89, N-[(1S)-2-{4-[6-(cyclopropylmethoxy)[1,2,4]triazolo[1,5-a]pyridin-2-yl]phenoxy}-1-methylethyl]acetamide] was tested. Which inhibition at 10 µM did it give?
Answer: 94%

Question: With `COC(=O)N[C@@H](C)COc1ccc(-c2nc3ccc(OCC4CC4)cc3o2)nc1` [Example 17, methyl [(1S)-2-({6-[6-(cyclopropylmethoxy)-1,3-benzoxazol-2-yl]pyridin-3-yl}oxy)-1-methylethyl]carbamate] as the compound, how does the inhibition at 10 µM read?
Answer: 90%

Question: With `C[C@@H](COc1cnc(-c2nc3ccc(OCC4CC4(F)F)cc3o2)c(F)c1)NC(N)=O` (stereo partly shown) [Example 97] as the compound, how does the inhibition at 10 µM read?
Answer: 95%

Question: Which inhibition at 10 µM does the source give for `C[C@@H](COc1ccc(-n2cc3ccc(OCC4CC4)cc3n2)cc1)NC(=O)N(C)C` [Example 63, 3-[(1S)-2-{4-[6-(cyclopropylmethoxy)-2H-indazol-2-yl]phenoxy}-1-methylethyl]-1,1-dimethylurea] here?
Answer: 93%

Question: Which inhibition at 10 µM does the source give for `CC(=O)N[C@@H](C)COc1ccc(-n2nc3cc(OCC4CC4)ccc3c2F)cc1` [Example 73, N-[(1S)-2-{4-[6-(cyclopropylmethoxy)-3-fluoro-2H-indazol-2-yl]phenoxy}-1-methylethyl]acetamide] here?
Answer: 99%

Question: Which inhibition at 10 µM does the source give for `CCOc1ccc2cn(-c3ccc(OC[C@H](C)NC(C)=O)cc3F)nc2c1` [Example 25, N-{(1S)-2-[4-(6-ethoxy-2H-indazol-2-yl)-3-fluorophenoxy]-1-methylethyl}acetamide monohydrate] here?
Answer: 90%

Question: `CCOc1ccc2cn(-c3ccc(OC[C@H](C)NC(C)=O)cc3)nc2c1` [Example 26, N-{(1S)-2-[4-(6-ethoxy-2H-indazol-2-yl)phenoxy]-1-methylethyl}acetamide] was tested. Which inhibition at 10 µM did it give?
Answer: 95%

— US8729102B2, “Bicyclic compound” (Takeda Pharmaceutical Company Limited, priority 2010, dated 2014)
